From US20240228489A1, “POSITIVE ALLOSTERIC MODULATORS OF THE MUSCARINIC ACETYLCHOLINE RECEPTOR M1” (Vanderbilt University, priority 2021, published 2024)

Key:
human mAChR M1 [1] = molecular target: T1, human mAChR M1 (Homo sapiens, UniProt P11229); assay: mAChR M1 cell-based functional assay (calcium mobilization), agonist mode: compound alone, Emax relative to acetylcholine maximum; settings: for Agonist Activity Human M1 EC50 / EC50: human mAChR M1; for Emax: relative to the maximum for acetylcholine
T1 sequence (P11229 1-460): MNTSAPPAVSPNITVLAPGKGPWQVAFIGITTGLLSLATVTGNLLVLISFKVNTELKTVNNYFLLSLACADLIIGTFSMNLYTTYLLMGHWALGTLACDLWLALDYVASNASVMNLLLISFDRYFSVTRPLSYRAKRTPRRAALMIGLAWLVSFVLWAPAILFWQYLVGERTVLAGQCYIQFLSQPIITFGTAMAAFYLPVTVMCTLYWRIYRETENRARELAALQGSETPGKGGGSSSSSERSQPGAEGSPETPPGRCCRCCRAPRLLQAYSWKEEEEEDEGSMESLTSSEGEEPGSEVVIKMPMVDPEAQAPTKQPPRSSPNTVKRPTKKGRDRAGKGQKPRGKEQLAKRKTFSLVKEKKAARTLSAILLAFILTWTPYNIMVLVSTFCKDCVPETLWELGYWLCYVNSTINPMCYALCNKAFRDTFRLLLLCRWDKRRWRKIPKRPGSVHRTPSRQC
Source text: (§1) Chinese hamster ovary (CHO-K1) cells stably expressing rat (r)M1 were purchased from the American Type Culture Collection and cultured according to their indicated protocol. CHO cells stably expressing human (h)M2, hM3, and hM5 were described previously (Levey, et al., 1991); hM1 and hM4 cDNAs were purchased from Missouri S&T cDNA Resource; rM4 cDNA was provided by T. I. Bonner (National Institutes of Health, Bethesda, MD). rM2 and rM3 were cloned from a rat brain cDNA library and sequence verified. hM1, rM2, rM3, hM4, and rM4 cDNAs were used to stably transfect CHO-K1 cells purchased from the American Type Culture Collection using Lipofectamine2000. To make stable rM2, hM2, rM3, hM4, and rM4 cell lines for use in calcium mobilization assays, these cells also were stably transfected with a chimeric G-protein (Gqi5) (provided by B. R. Conklin, University of California, San Francisco) using Lipofectamine 2000. rM1, hM1, rM3, hM3, rM5, and hM5 cells were grown in Ham's F-12 medium containing 10% heat-inactivated fetal bovine serum (FBS), 20 mM HEPES, and 50 μg/mL G418 sulfate. rM2-Gqi5, hM2-Gqi5, and hM4-Gqi5 cells were grown in the same medium also containing 500 μg/mL Hygromycin B. Stable rM4-Gqi5 cells were grown in DMEM containing 10% heat-inactivated FBS, 20 mM HEPES, 400 μg/mL G418 sulfate, and 500 μg/mL Hygromycin B.
(§2) For high throughput measurement of agonist-evoked increases in intracellular calcium, CHO-K1 cells stably expressing muscarinic receptors were plated in growth medium lacking G418 and hygromycin at 15,000 cells/20 μL/well in Greiner 384-well black-walled, tissue culture (TC)-treated, clear-bottom plates (VWR). Cells were incubated overnight at 37° C. and 5% C02. The next day, cells were washed using an ELX 405 (BioTek) with four washes (80 μL) of assay buffer then aspirated to 20 μL. Next, 20 μL of 16 μM Fluo-4/acetoxymethyl ester (Invitrogen, Carlsbad, CA) prepared as a 2.3 mM stock in DMSO and mixed in a 1:1 ratio with 10% (w/v) Pluronic F-127 and diluted in assay buffer was added to the wells and the cell plates were incubated for 50 min at 37° C. and 5% C02. Dye was removed by washing with the ELX 405 (four 80 μL washes of assay buffer) then aspirated to 20 μL. Compound master plates were formatted in an 11 point CRC format (1:3 dilutions) in 100% DMSO with a starting concentration of 10 mM using the BRAVO liquid handler (Agilent). Test compound CRCs were then transferred to daughter plates (240 nL) using the Echo acoustic plate reformatter (Labcyte, Sunnyvale, CA) and then diluted into assay buffer (40 μL) to a 2× stock using a Thermo Fisher Combi (Thermo Fisher Scientific, Waltham, MA).
(§3) Calcium flux was measured using the Functional Drug Screening System (FDSS) 6000 (Hamamatsu Corporation, Tokyo, Japan) as an increase in the fluorescent static ratio. Compounds were applied to cells (20 μL, 2×) using the automated system of the FDSS 6000 at 4 s into the 300 s protocol and the data were collected at 1 Hz. At 144 s into the 300 s protocol, 10 μL of an EC20 concentration of the muscarinic receptor agonist acetylcholine was added (5×), followed by the addition of 12 μL of an EC80 concentration of acetylcholine at the 230 s time point (5×). Agonist activity was analyzed as a concentration-dependent increase in calcium mobilization upon compound addition. Emax values for agonist activity are expressed relative to the maximum for acetylcholine. Positive allosteric modulator activity was analyzed as a concentration-dependent increase in the EC20 acetylcholine response. Antagonist activity was analyzed as a concentration-dependent decrease in the EC80 acetylcholine response. Concentration-response curves were generated using a four-parameter logistical equation in XLfit curve fitting software (IDBS, Bridgewater, NJ) for Excel (Microsoft, Redmond, WA) or Prism (GraphPad Software, Inc., San Diego, CA).

human mAChR M1 [2] = molecular target: T1, human mAChR M1; assay: mAChR M1 cell-based functional assay (calcium mobilization), PAM mode: increase in the EC20 acetylcholine response
Source text: as §1, §2
as §3, with “CA). […]” for “CA).”

SMILES | Agonist Activity Human M1 EC50 (human mAChR M1 [1]) | Emax (human mAChR M1 [1]) [%] | EC50 (human mAChR M1 [2]) [nM] | Emax (human mAChR M1 [2]) [%] | EC50 (human mAChR M1 [1]) [µM]
[2H]C1([2H])c2ncccc2C(=O)N1Cc1ccc(-c2ccc3cn(C)nc3c2)cc1 [Compound 14, 6-(4-(2-methyl-2H-indazol-6-yl)benzyl)-6,7-dihydro-5H-pyrrolo[3,4-b]pyridin-5-one-7,7-d2] | Inactive | 2 | 6800 | 77 | 
[2H]C1([2H])c2ncccc2C(=O)N1Cc1ccc(-c2cc3cn(C)nc3cc2C)cc1 [Compound 16, 6-(4-(2,6-dimethyl-2H-indazol-5-yl)benzyl)-6,7-dihydro-5H-pyrrolo[3,4-b]pyridin-5-one-7,7-d2] | Inactive | 3 | > 10000 | 55 | 
[2H]C1([2H])c2ncccc2C(=O)N1Cc1ccc(-c2cc(C)c3nn(C)cc3c2)cc1 [Compound 17, 6-(4-(2,7-dimethyl-2H-indazol-5-yl)benzyl)-6,7-dihydro-5H-pyrrolo[3,4-b]pyridin-5-one-7,7-d2] | Inactive | 4 | 853 | 79 | 
[2H]C1([2H])c2ncccc2C(=O)N1Cc1ccc(-c2ccc3cncn3c2)cc1 [Compound 18, 6-(4-(imidazo[1,5-a]pyridin-6-yl)benzyl)-6,7-dihydro-5H-pyrrolo[3,4-b]pyridin-5-one-7,7-d2] | Inactive | 2 | 4170 | 65 | 
[2H]C1([2H])c2ncccc2C(=O)N1Cc1ccc(-c2ccn3ccnc3c2)cc1 [Compound 19, 6-(4-(imidazo[1,2-a]pyridin-7-yl)benzyl)-6,7-dihydro-5H-pyrrolo[3,4-b]pyridin-5-one-7,7-d2] | Inactive | 4 | > 10000 | 58 | 
[2H]C1([2H])c2ncccc2C(=O)N1Cc1ccc(-c2ccnc3nn(C)cc23)cc1F [Compound 22, 6-(2-fluoro-4-(2-methyl-2H-pyrazolo[3,4-b]pyridin-4-yl)benzyl)-6,7-dihydro-5H-pyrrolo[3,4-b]pyridin-5-one-7,7-d2] | Inactive | 6 | 1940 | 74 | 
[2H]C1([2H])c2ncccc2C(=O)N1Cc1c(F)cc(-c2ccc(C)c3nn(C)cc23)cc1F [Compound 27, 6-(4-(2,7-dimethyl-2H-indazol-4-yl)-2,6-difluorobenzyl)-6,7-dihydro-5H-pyrrolo[3,4-b]pyridin-5-one-7,7-d^2] | Inactive | 4 | 542 | 84 | 
[2H]C1([2H])c2ncccc2C(=O)N1Cc1ccc(-c2ccc(C)c3nn(C)cc23)cc1F [Compound 28, 6-(4-(2,7-dimethyl-2H-indazol-4-yl)-2-fluorobenzyl)-6,7-dihydro-5H-pyrrolo[3,4-b]pyridin-5-one-7,7-d2] |  | 28 | 535 | 80 | 6.24
[2H]C1([2H])c2ncccc2C(=O)N1Cc1ccc(-c2cccc3nn(C)cc23)cc1C [Compound 29, 6-(2-methyl-4-(2-methyl-2H-indazol-4-yl)benzyl)-6,7-dihydro-5H-pyrrolo[3,4-b]pyridin-5-one-7,7-d2] |  | 33 | 632 | 81 | 7.86

The next lines start with the values.

Agonist Activity Human M1 EC50 (human mAChR M1 [1]) | Emax (human mAChR M1 [1]) [%] | EC50 (human mAChR M1 [2]) [nM] | Emax (human mAChR M1 [2]) [%] | EC50 (human mAChR M1 [1]) [µM] | SMILES
Inactive | 2 | 1770 | 51 |  | [2H]C1([2H])c2ncccc2C(=O)N1Cc1ccc(-c2cc3cn(C)nc3cc2F)cc1 [Compound 15, 6-(4-(6-fluoro-2-methyl-2H-indazol-5-yl)benzyl)-6,7-dihydro-5H-pyrrolo[3,4-b]pyridin-5-one-7,7-d2]
Inactive | 3 | 3970 | 75 |  | [2H]C1([2H])c2ncccc2C(=O)N1Cc1ccc(-c2ccc3cn(C)nc3c2)cc1F [Compound 20, 6-(2-fluoro-4-(2-methyl-2H-indazol-6-yl)benzyl)-6,7-dihydro-5H-pyrrolo[3,4-b]pyridin-5-one-7,7-d2]
Inactive | 6 | 2420 | 76 |  | [2H]C1([2H])c2ncccc2C(=O)N1Cc1ccc(-c2cnc3nn(C)cc3c2)cc1F [Compound 21, 6-(2-fluoro-4-(2-methyl-2H-pyrazolo[3,4-b]pyridin-5-yl)benzyl)-6,7-dihydro-5H-pyrrolo[3,4-b]pyridin-5-one-7,7-d2]
Inactive | 7 | 1130 | 76 |  | [2H]C1([2H])c2ncccc2C(=O)N1Cc1ccc(-c2cccc3nn(C)cc23)cc1F [Compound 23, 6-(2-fluoro-4-(2-methyl-2H-indazol-4-yl)benzyl)-6,7-dihydro-5H-pyrrolo[3,4-b]pyridin-5-one-7,7-d2]
Inactive | 2 | 3600 | 69 |  | [2H]C1([2H])c2ncccc2C(=O)N1Cc1ccc(-c2cc3cn(C)nc3cc2F)cc1F [Compound 24, 6-(2-fluoro-4-(6-fluoro-2-methyl-2H-indazol-5-yl)benzyl)-6,7-dihydro-5H-pyrrolo[3,4-b]pyridin-5-one-7,7-d2]
Inactive | 4 | 1070 | 76 |  | [2H]C1([2H])c2ncccc2C(=O)N1Cc1ccc(-c2cc(C)c3nn(C)cc3c2)cc1F [Compound 25, 6-(4-(2,7-dimethyl-2H-indazol-5-yl)-2-fluorobenzyl)-6,7-dihydro-5H-pyrrolo[3,4-b]pyridin-5-one-7,7-d2]
Inactive | 3 | 7580 | 58 |  | [2H]C1([2H])c2ncccc2C(=O)N1Cc1ccc(-c2cc3cn(C)nc3cc2C)cc1F [Compound 26, 6-(4-(2,6-dimethyl-2H-indazol-5-yl)-2-fluorobenzyl)-6,7-dihydro-5H-pyrrolo[3,4-b]pyridin-5-one-7,7-d2]
